The numbers were not newly measured in patent publication US20210316003A1 (Immunomedics, Inc., priority 2020, published 2021), which cites them from elsewhere.

Like-named read-outs stand apart in the source and are kept apart here.

Data set [1] has as its system patients. To be noted: single-agent therapy; cited from earlier work.
Data set [2] concerns patients with advanced colorectal cancer. To be noted: cited from earlier work.
Data set [3] relates to SCLC patients. To be noted: 28 SCLC patients; cited from earlier work.
Data set [4] relates to patients with relapsed SCLC. To be noted: cited from earlier work.
For data set [5], the system named is patients with recurrent SCLC. The note with it: nivolumab alone; cited from earlier work.

For `CCc1c2c(nc3ccc(OC(=O)N4CCC(N5CCCCC5)CC4)cc13)-c1cc3c(c(=O)n1C2)COC(=O)[C@]3(O)CC` [irinotecan], the “Grade ≥3 events of early diarrhea” value in data set [1] is listed as 8%. Besides, in data set [1], the “Grade ≥3 events of late diarrhea” value was 31%. The Response in data set [2] (TDP1 IVS12+79 G/G genotype) is given as 64%; in data set [2] (TDP1 IVS12+79 T/T genotype) it was 25%. Further, the “Incidence of grade 3/4 neutropenia” value in data set [2] (TOP1 IVS4+61 A/A genotype (small sample size)) is 50%; in data set [2] (TOP1 IVS4+61 G/G genotype), 8%.
On to `CC[C@@]1(O)C(=O)OCc2c1cc1n(c2=O)Cc2cc3c(CN(C)C)c(O)ccc3nc2-1` [topotecan], for which, in data set [3], the Median survival is listed as 5 months, the One-year survival is recorded as 3.5% and the PR was 11%. For the same compound, in data set [4] (SCLC, meta-analysis), the “Grade ≥3 anemia” value is listed as 24%, the “Grade ≥3 neutropenia” value was 69%, the “Grade ≥3 thrombocytopenia” value was 1% and the “Patients who died from this chemotherapy” value is given as “approximately 2%”. Moreover, the Objective response rate in data set [4] (chemoresistant frontline SCLC patients) is 5%. In addition, the Objective response rate in data set [4] (chemosensitive SCLC patients) is on record as 17%.
Take “Nivolumab: inhibitor of the T-cell checkpoint receptor PD-1”: the Response rate in data set [5] is recorded as 10%.
